# Assay results taken from patent US11286236B2, “Compound, agent and composition for the suppression of cancer growth” (Vector Vitale IP LLC, priority 2018, dated 2022).
# Counter-ions that a name gives are not always drawn.
# Test system: Ehrlich ascites carcinoma
# Assay: In vivo antitumor activity against Ehrlich ascites carcinoma
# Design: species or system mouse
# Method: Outbred mice were administered Ehrlich ascites carcinoma cells (EAC) intraperitoneally (IP) at a dose of 2.5×10^5 cells in 0.25 ml of normal saline solution. The compounds under study, 1)^85RbeE2, was dissolved in deuterium-depleted water and 2) Cisplatin (Teva, the Netherlands), was dissolved in normal saline solution. The drugs were administered starting from the first day after mice were inoculated with tumor cells, using a microinjection syringe, at the following doses: 1)^85Rbe-E2 at a dose of 750 μg/mouse (weighing 20 g) in a volume of 0.3 ml as 3 IP injections (1 injection—250 μg/mouse) on the 1st, 4th and 7th day of the experiment; 2) Cisplatin at a dose of 4.5 mg/kg or 1.5 mg/kg as 3 IP injections on the 2nd, 5th and 8th day of the experiment. The dynamics of tumor growth in the experimental animals was observed (based on the volume of ascites in the peritoneal cavity) after the tumor cell inoculation and for 31 days of the experiment. On the 15th and 22nd day after IP administration of tumor cells, all the fluid accumulated in each animal's abdomen was extracted and the total number of live/dead cells in each mouse was determined. In addition, some mice were used to assess a survival rate of animals in the experiment.
# Laboratory animals. 84 outbred female 10 to 12-week old mice weighing 22-26 g were used in the experimental study. The animals were obtained from the animal vivarium at R.E. Kavetsky IEPOR NASU. […] The animals were maintained in plastic cages, under natural light-dark cycles, fed standard food and allowed free access to food and tap water.
# Tumor model. Ascites strain of Ehrlich ascites carcinoma maintained on outbred mice obtained from the cell and tissue line bank at R.E. Kavetsky IEPOR NASU was used in the experiment. To prepare the strain for injection, tumor cells derived from ascitic fluid were placed in normal saline solution and cellularity of the suspension was assessed in a hemocytometer and adjusted to a concentration of 1·10^6 cells/ml with saline solution. The tumor cells were inoculated by injecting 250 mcl of cell suspension from the tumor (0.25×10^6 cells/mouse) into the peritoneal cavity of laboratory animals.
# The drugs were administered IP every other day, using a microinjection syringe, at doses specified above as a series of 3 injections of each compound according to the following scheme: ^85Rbe-E2 at a dose of 250 μg/mouse weighing 20 g+CP at a dose of […] 24 hours later (for groups (EAC+CP(4.5)) and (EAC+^85Rbe-E2+CP(4.5)) or […] (for groups (EAC+CP(1.5)) and (EAC+^85Rbe-E2+CP(1.5)) in a volume of 0.25 ml of saline solution (6 injections in total during 8 days).
# The tumor growth dynamics in the laboratory animals was observed by daily control of the volume of ascitic fluid in the abdominal cavity of mice starting from the tumor inoculation and for 31 days of the experiment. The dynamics of ascites growth both in control and experimental groups was assessed visually using a 10-point scale, where 0 points were the absence of tumor growth and 10 points were the maximum increase in the size of the abdomen of the mouse with ascites (one point was 0.6 cm of the mean diameter of the mouse abdomen filled with the fluid).
# Furthermore, on the 15th and 22nd day after intraperitoneal injection of tumor cells, all ascitic fluid was removed from the abdomen in 2 or 3 animals from each group by washing their peritoneal cavity with saline solution, and live/dead EAC cells were counted in each mouse using the traditional vital dye trypan blue (HyClon, USA) and a hemocytometer.
# X=((a)/80)×10^6, where X is the number of cells in 1 ml and a is the number of cells counted in 5 large diagonal squares of the hemocytometer.
# 7 or 8 mice from each group were used to assess their survival in the experiment. The total lifespan observation time was 31 days from the moment of inoculation of tumor cells.
# Statistical data processing. […]
# [1] = 85Rbe-E2 750 μg/mouse IP total, alone, 14 mice per group
# [2] = Day 15, 85Rbe-E2 750 μg/mouse IP total, alone
# [3] = Day 22, 85Rbe-E2 750 μg/mouse IP total, alone
# [4] = day 15, 85Rbe-E2 750 μg/mouse IP total, alone
# [5] = day 17, 85Rbe-E2 750 μg/mouse IP total, alone
# [6] = day 22, 85Rbe-E2 750 μg/mouse IP total, alone
# [7] = day 24, 85Rbe-E2 750 μg/mouse IP total, alone
# [8] = day 27, 85Rbe-E2 750 μg/mouse IP total, alone
# [9] = day 29, 85Rbe-E2 750 μg/mouse IP total, alone
# [10] = day 31, 85Rbe-E2 750 μg/mouse IP total, alone
structure (smiles),measurement,setting,value
"Cc1ccc(S(=O)(=O)Nc2ccccc2NC(=O)c2ccccc2)cc1 [^85Rbe − E2, ^85Rb-enriched rubidium salt of N-benzoyl-N′-(4-toluenesulfonyl)-o-phenylenediamine]","Animals without tumor, %","85Rbe-E2 750 μg/mouse IP total, alone",0%
same,Number of animals in the group with tumor,[1],14
same,Number of animals in the group without tumor,[1],0
same,Last day with statistically significant inhibition of EAC growth vs control,85Rbe-E2 alone,15 days
same,"Suppression of carcinoma growth vs control, average","85Rbe-E2 alone, by the 15th day after inoculation",18%
same,"Number of dead cells/mouse, %",[2],4.3 ± 1.5%
same,"Number of live cells/mouse, ×10^6 (M ± m)",[2],1917 ± 408 ×10^6
same,Volume of ascites,[2],6.5 ± 2.9 mL
same,"Number of dead cells/mouse, %",[3],15.4 ± 3.6%
same,"Number of live cells/mouse, ×10^6 (M ± m)",[3],2062 ± 438 ×10^6
same,Volume of ascites,[3],16.4 ± 4.8 mL
same,"Survival, percent of mice","day 0, 85Rbe-E2 750 μg/mouse IP total, alone",100%
same,"Size of mouse abdomen, points","day 9, 85Rbe-E2 750 μg/mouse IP total, alone",4.4 ± 0.2 points
same,"Size of mouse abdomen, points","day 13, 85Rbe-E2 750 μg/mouse IP total, alone",6 ± 0.3 points
same,"Size of mouse abdomen, points",[4],6.5 ± 0.3 points
same,"Survival, percent of mice",[4],100%
same,"Size of mouse abdomen, points",[5],8 ± 0.6 points
same,"Survival, percent of mice",[5],85.7%
same,"Survival, percent of mice","day 19, 85Rbe-E2 750 μg/mouse IP total, alone",85.7%
same,"Size of mouse abdomen, points","day 20, 85Rbe-E2 750 μg/mouse IP total, alone",9 ± 0.4 points
same,"Size of mouse abdomen, points",[6],9.5 ± 0.4 points
same,"Survival, percent of mice",[6],85.7%
same,"Size of mouse abdomen, points",[7],10 points
same,"Survival, percent of mice",[7],85.7%
same,"Survival, percent of mice","day 25, 85Rbe-E2 750 μg/mouse IP total, alone",71%
same,"Survival, percent of mice","day 26, 85Rbe-E2 750 μg/mouse IP total, alone",71%
same,"Size of mouse abdomen, points",[8],10 points
same,"Survival, percent of mice",[8],57%
same,"Survival, percent of mice","day 28, 85Rbe-E2 750 μg/mouse IP total, alone",43%
same,"Size of mouse abdomen, points",[9],10 points
same,"Survival, percent of mice",[9],29%
same,"Size of mouse abdomen, points",[10],10 points
same,"Survival, percent of mice",[10],14%
same,Effect on the survival rate of mice,series of IP injections of 85Rbe-E2 alone,did not have a significant effect
